Laboratory results published in patent publication US8071556B2, “Peptide substance revealing a stress protective effect, pharmaceutical composition on its base, and the method of its application” (Obschestvo S Ogranichennoi Otvetstevennostyu “Sia Peptides”, priority 2006, dated 2011).
Positions of bridges follow the written chain, without caps; N, C: chain ends. Non-standard residues stand in square brackets, D forms with d. Residues, ends and D or L forms follow the SMILES beside them. *: point of attachment. Ileψ(thiazoline)Cys = CC[C@H](C)[C@H](N)C1=N[C@H](C(=O)*)CS1; dOrn = NCCC[C@@H](N)C(=O)O

Tests used:
[1] = system: enkephalinases in human blood serum; assay: Activity of enkephalinases in human blood serum ([3H]Leu-enkephalin disintegration); format: biochemical; conditions: 0.15 μM [3H]Leu-enkephalin
Method: The ability of peptide H-Glu-Asp-Gly-OH to influence the activity of endogen opioid peptide degradation enzymes, i.e. […], was estimated in kinetic studies judging by disintegration of low concentrations (0.15 μM) of [^3H]Leu-enkephalin by human blood serum enzymes. Commonly used enkephalinase inhibitors N-carboxymethyl-Phe-Leu (N-CMPL) and bacitracin were used as comparison substances. Summary enkephalinase activity of the blood serum taken from 5 healthy donors, was estimated in vitro. Results were evaluated after 4 studies.

[2] = system: biogen amines in rat brain cortex; assay: Level of biogen amines in rat brain cortex after peptide administration; format: in vivo; conditions: 2.5 μg/kg intraperitoneal daily for 5 days, vs control (FIG. 1)
Method: (§1) The study was performed on 27 white mongrel rats of both sexes with body weight of 300-320 g.
(§2) The animals were subjected to intraperitoneal injection of peptide H-Glu-Asp-Gly-OH in the dose of 2.5 μg/kg in 0.5 ml of sterile 0.9% NaCl solution daily for 5 days.
(§3) Control rats received sterile 0.9% NaCl solution in the same volume and by the same schedule.
(§4) Upon completion of peptide administration the animals were decapitated, and the content of noradrenaline, dopamine, 5-oxyindolacetic acid, serotonin and histamine was evaluated in the brain cortex and blood serum.

[3] = system: biogen amines in rat blood serum; assay: Level of biogen amines in rat blood serum after peptide administration; format: in vivo; conditions: 2.5 μg/kg intraperitoneal daily for 5 days, vs control (FIG. 2)
Method: as §1, §2, §3, §4

[4] = system: c-fos gene expression in the neurons of rat hypothalamic paraventricular nucleus; assay: c-fos gene expression in neurons of rat hypothalamic paraventricular nucleus under emotional stress; format: in vivo, Wistar rats
Method: The effect of peptide H-Glu-Asp-Gly-OH was studied in the paraventicular nucleus of hypothalamus (PVH) in stress-resistant and stress-prone animals, as well as in rats exposed to emotional stress.
The experiments were conducted on 28 Wistar rats.
Behavior of the animals was preliminarily (for the purpose of identifying the extent of their resistance to emotional stress) estimated in the “open field” test. The effectiveness of peptide H-Glu-Asp-Gly-OH was studied on stress-resistant and stress-prone rats. Peptide H-Glu-Asp-Gly-OH was administered intraperitoneally in the doses of 0.1 and 0.01 μg per rat 7-10 days after the first “open field” test. One hour after the injection the rats were exposed to the 60 minutes emotional stress, which was modulated by motional restriction.
To identify the cells, containing Fos protein, which is a product of the early c-fos gene expression, an immunohystochemical investigation of brain section with automated counting of Fos-positive cells was performed. The peculiarities of c-fos gene induction were studied in the PVH.

[5] = system: c-Fos protein in rat pineal gland; assay: c-Fos protein level and parenchyma status in rat pineal gland in osmotic stress; format: in vivo; conditions: rats, 48-hour osmotic stress
Method: Effect of intranasally administered H-Glu-Asp-Gly-OH peptide on c-Fos protein content in stress-affected rat pineal gland was studied. Immunohistochemical study of c-Fos protein content was performed in two groups of rats—intact and subjected to 48-hour osmotic stress. The latter were intranasally administered with peptide H-Glu-Asp-Gly-OH in the dose of 0.5 μg per animal in 0.1 ml of sterile physiological 0.9% NaCl solution (last infusion was performed 2 hours before taking the material). Pineal gland parenchyma in all groups of animals was studied using light optical appliances.

[6] = Acute toxicity, single intramuscular administration; format: in vivo, white mongrel male mice; conditions: mice, 1-5 mg/kg, dose exceeding the therapeutic one by more than 5000 times
Source text: (§5) Common toxicity of peptide H-Glu-Asp-Gly-OH was studied according to the requirements stated in the “Manual for experimental (pre-clinical) study of new pharmacological substances” (2000): acute toxicity in case of single administration of the substance, as well as sub-acute and chronic toxicity in case of long-term administration of the peptide.
Acute toxicity was studied on 66 white mongrel male mice with body weight of 20-22 g. The animals were randomly subdivided into 6 equal groups. The substance was administered to the animals once, intramuscularly, in the doses of 1 mg/kg, 2 mg/kg, 3 mg/kg, 4 mg/kg, 5 mg/kg in 0.25 ml of sterile 0.9% NaCl solution. Control animals received 0.9% NaCl solution in the same volume.

[7] = Sub-acute toxicity, 90 days intramuscular administration; format: in vivo, white mongrel male rats; conditions: rats; intramuscular daily for 90 days; doses exceeding the therapeutic one by 100-1000 times
Source text: as §5
Sub-acute toxicity was studied on 64 white mongrel male rats with body weight of 180-220 g. Experimental animals daily, once a day, for 90 days received the substance intramuscularly in the doses of 1 μg/kg, 0.1 mg/kg, 1 mg/kg in 0.5 ml of sterile 0.9% NaCl solution. Control animals received sterile 0.9% NaCl solution in the same volume. Morphological composition and properties of the animals' peripheral blood was studied before the administration of the substance, as well as on the 30th, 60th and 90th day after the beginning of the administration of the substance. Biochemical and coagulologic indices of the blood were studied upon completion of the experiment.

[8] = set-up: species or system male guinea pigs; conditions: guinea pig, in vivo
Method: as §5
The studies of chronic toxicity were conducted for 6 months, basing on the term of recommended clinical administration of the substance, on 92 male guinea pigs with body weight of 310-350 g. Experimental animals received the peptide daily, once a day, intramuscularly, for 6 months in the doses of 1 μg/kg, 0.1 mg/kg, 1 mg/kg in 0.5 ml of sterile 0.9% NaCl solution. Control animals received sterile 0.9% NaCl solution in the same volume and by the same schedule. Traditional methods were used for the evaluation of the following indices of the animals' peripheral blood: the quantity of erythrocytes, hemoglobin, reticulocytes, thrombocytes, leukocytes, leukocyte formula, erythrocyte sedimentation rate (ESR), erythrocyte resistance. Alongside with that, the content of total protein in the serum was identified using Lowry's method, as well as potassium and sodium content using the method of plasma spectrophotometry. After the completion of the experiment pathomorphologic studies of animal brain and spinal cord, spinal cord ganglia, thyroid gland, parathyroid glands, adrenal glands, testis, pituitary gland, heart, lungs, aorta, liver, kidneys, urinary bladder, pancreas, stomach, small intestine, large intestine, thymus, spleen, lymph nodes and bone marrow were performed.

[9] = Human functional status under low oxygen partial pressure (pressure chamber rise to 5000 meters); format: in vivo; conditions: healthy men
Method: Effect of peptide H-Glu-Asp-Gly-OH on human functional status and working ability in extreme conditions under the effect of low oxygen partial pressure was studied by examining 80 healthy men aged 20-22 years. The participants of the study were subdivided into 3 groups: 20 men formed the control group, while main groups I and II consisted of 30 persons each. Background study, including the examination of respiratory, cardiovascular and central nervous systems was performed on the first day of the experiment.
After the completion of background study the members of main group I began receiving the pharmaceutical composition, containing peptide H-Glu-Asp-Gly-OH as its active base, by intranasal infusions, in the dose of 5.0 mg in 1 ml of physiological solution (subgroup I), in the dose of 100.0 μg (subgroup II) and in the dose of 1.0 μg in 1.0 ml of physiological solution (subgroup III) […], for 2 days. Thus, the members of main group I received the peptide H-Glu-Asp-Gly-OH intranasally in the dose of 10 mg (subgroup I), 200 μg (subgroup II) and 2 μg (subgroup III) per course.
Members of main group II began receiving the pharmaceutical composition, containing the peptide H-Glu-Asp-Gly-OH as its active base, after the completion of background study, intramuscularly, in the dose of 5.0 mg in 1 ml of physiological solution (subgroup I), in the dose of 100.0 μg (subgroup II) and in the dose of 1.0 μg in 1.0 ml of physiological solution (subgroup III) daily, once a day, for 2 days.
Members of the control group received placebo in the form water for injections.
On the 4th day of the experiment the members of all 3 groups were subjected to the effect of hypoxic hypoxia by “rising” them to the altitude of 5000 meters for 60 minutes of exposition without auxiliary oxygen supply, which was imitated using the pressure chamber SBK-80. Participants of the experiment were shortly examined before the beginning of the “rise”, during the experiment and after its completion. On the 5th day of the experiment all participants were subjected to a full scale final examination. During the study reactive anxiety in all participants was on the moderate level (31-45 points). […] After 2 days of administration of the pharmaceutical composition containing peptide H-Glu-Asp-Gly-OH in different doses as its active base reactive anxiety in participants of the experiment was reduced by 10-13% depending on the dosage and method of administration of the pharmaceutical composition as compared to the members of the control group.

[10] = 10 μg/ml, human blood serum of 5 healthy donors (FIG. 5)
[11] = end of the test, depending on the dosage and method of administration, placebo 10-11%

## CC(C)C[C@H](NC(=O)[C@H](Cc1ccccc1)NCC(=O)O)C(=O)O [N-CMPL, N-carboxymethyl-Phe-Leu]
[1]; [10]
  activity of blood serum enkephalinases: comparable

## CC[C@H](C)[C@H](N)C1=N[C@H](C(=O)N[C@@H](CC(C)C)C(=O)N[C@H](CCC(=O)O)C(=O)N[C@H](C(=O)N[C@H]2CCCCNC(=O)[C@H](CC(N)=O)NC(=O)[C@@H](CC(=O)O)NC(=O)[C@H](Cc3cnc[nH]3)NC(=O)[C@@H](Cc3ccccc3)NC(=O)[C@H]([C@@H](C)CC)NC(=O)[C@@H](CCCN)NC2=O)[C@@H](C)CC)CS1 [bacitracin] ({Ileψ(thiazoline)Cys}-L[dE]IK[dOrn]I[dF]H[dD]N; lactam 4-C)
[1]; 50 μg/ml, human blood serum of 5 healthy donors
  activity of blood serum enkephalinases: comparable

## N[C@@H](CCC(=O)O)C(=O)N[C@@H](CC(=O)O)C(=O)NCC(=O)O [peptide H-Glu-Asp-Gly-OH, glutamyl-aspartyl-glycine] (H-Glu-Asp-Gly-OH)
[2]
  dopamine content in brain cortex: reliable increase
  noradrenaline content in brain cortex: reliable increase
  serotonin content in brain cortex: reliable increase
[3]
  dopamine content in blood serum: decrease
  histamine content in blood serum: decrease
  serotonin content in blood serum: decrease
[4]; 0.01 μg per rat intraperitoneal, stress-resistant rats, both not exposed and exposed to stress
  number of Fos-positive neural cells in PVH: increase
[4]; 0.1 μg per rat intraperitoneal, against the background of stress, stress-resistant animals
  number of Fos-positive neurons in PVH: increased
[4]; 0.1 μg per rat intraperitoneal, both stress-resistant and stress-prone rats
  number of Fos-positive neural cells in PVH: reduced
[5]; 0.5 μg per animal intranasal (FIG. 3)
  content of c-Fos protein in pinealocytes: Mild but reliable increase
[5]; 0.5 μg per animal intranasal (FIG. 4)
  osmotic stress induced dilation of capillaries and pericapillary space in pineal gland parenchyma: partial reduction
[1]; [10]
  activity of blood serum enkephalinases: inhibited
[6]
  acute toxicity: toxic reactions: does not cause toxic reactions
[7]
  sub-acute toxicity: side effects: absence of side effects
[8]
  chronic toxicity: side effects: absence of side effects
  effect on ESR, erythrocyte resistance and biochemical indices of the blood serum: No reliable effect
  pathologic changes (general status, blood indices, internal organs, cardiovascular and respiratory systems, liver and kidney functions): did not reveal any pathologic changes
[9]; 5000 meters, 60 minutes, placebo 60%
  study participants showing good tolerability to hypoxia: 80-90%
[9]; after 2 days of administration, different doses, intranasal or intramuscular
  reduction of reactive anxiety as compared to the control group: 10-13%
[9]; after hypoxia impact
  lung ventilation in case of dosed physical load: reduced lung ventilation
[9]; depending on the dose and method of administration, placebo 30-40%
  increase in heart rate (HR) caused by hypoxia: 10-20%
[9]; [11]
  increase in maximum oxygen consumption: 15-20%
  increase in physical working capacity index (PWC 170): 15-20%
[9]; intramuscular administration, different doses
  subjective status under hypoxic hypoxia versus initial level: equal to the initial level
[9]; intranasal infusion
  decrease in the subjective status under hypoxic hypoxia: 4-5%
[9]; next day after the impact of hypoxia, independently of the method of administration
  reactive anxiety level versus initial level: equal to the initial one
[9]; next day after the impact of hypoxia, intramuscular administration
  subjective status better than the initial level: 15%
[9]; next day after the impact of hypoxia, intranasal infusion
  subjective status better than the initial level: 10%
